From EPA's ToxRefDB 2

Experiments:
rat [1] = settings: Subchronic oral toxicity in rodents, fischer, Water, dose end: 93 day
rat [2] = settings: Combined chronic toxicity/carcinogenicity, fischer, Oral, Water, dose end: 24 month, group: systemic
rat [3] = settings: Prenatal developmental toxicity study; sprague dawley; Oral; Gavage/Intubation; dose end: 20 GD; group: maternal; systemic / in life observation / body weight / body weight gain
mouse [4] = settings: Multigenerational reproductive toxicity study, cd1, Oral, Water, dose end: 2 generation
rat [5] = settings: Developmental neurotoxicity study; sprague dawley; Oral; Gavage/Intubation; dose end: 77 PND; group: cannot be grouped; systemic / in life observation / body weight / body weight
mouse [6] = settings: Prenatal developmental toxicity study, cd1, Oral, Gavage/Intubation, dose end: 17 GD
rat [7] = settings: Developmental neurotoxicity study, fischer, Oral, Gavage/Intubation, dose end: 22 PND, group: cannot be grouped
rat [8] = settings: Neurotoxicity screening battery; long evans; Injection; Intraperitoneal; dose end: 13 week; group: cannot be grouped; systemic / in life observation / clinical signs / abnormal gait + systemic / in life observation / clinical signs / irritability + systemic…
rat [9] = settings: Developmental neurotoxicity study; wistar; Oral; Gavage/Intubation; dose end: 91 PND; group: cannot be grouped; systemic / in life observation / body weight / body weight + systemic / in life observation / body weight / body weight gain + systemic / in…
mouse [10] = settings: Subchronic oral toxicity in rodents, b6c3f1, Gavage/Intubation, dose end: 14 week, group: systemic
mouse [11] = settings: Combined chronic toxicity/carcinogenicity, b6c3f1, Oral, Gavage/Intubation, dose end: 105 week, group: systemic
rat [12] = settings: Prenatal developmental toxicity study, fischer, Oral, Gavage/Intubation, dose end: 10 GD
rat [13] = settings: Prenatal developmental toxicity study, wistar, Oral, Gavage/Intubation, dose end: 10 GD
rat [14] = settings: Acute oral toxicity, wistar, Gavage/Intubation, dose end: 7 day, group: systemic, systemic / clinical chemistry / calcium / calcium + systemic / urinalysis / calcium / calcium
rabbit = settings: Prenatal developmental toxicity study, new zealand white, Oral, Gavage/Intubation, dose end: 19 GD
rat [15] = settings: Prenatal developmental toxicity study, sprague dawley, Oral, Gavage/Intubation, dose end: 17 GD
rat [16] = settings: Prenatal developmental toxicity study, sprague dawley, Oral, Gavage/Intubation, dose end: 20 GD
mouse [17] = settings: Subchronic oral toxicity in rodents, other, Gavage/Intubation, dose end: 13 week, group: systemic, systemic / clinical chemistry / alanine aminotransferase (alt/sgpt) / alanine aminotransferase (alt/sgpt) + systemic / clinical chemistry / …
[18] = group: cholinesterase, cholinesterase / cholinesterase / cholinesterase / cholinesterase (che)
[19] = group: systemic, systemic / clinical chemistry / alkaline phosphatase (alp/alk) / alkaline phosphatase (alp/alk) + systemic / hematology / erythrocyte (rbc) …
[20] = systemic / pathology microscopic / testes / mesothelioma nos + systemic / pathology microscopic / brain / astrocytoma nos + systemic / …
[21] = group: parental, systemic / in life observation / body weight / body weight + systemic / organ weight / adrenal gland / absolute + systemic / organ weight / …
[22] = group: reproductive, reproductive / offspring survival early / live fetuses / live fetuses
[23] = group: developmental, systemic / in life observation / body weight / fetal weight
[24] = group: maternal, systemic / in life observation / body weight / body weight gain + systemic / in life observation / clinical signs / splayed hindlimbs + …
[25] = systemic / in life observation / body weight / offspring (pup) weight + reproductive / reproductive performance / pregnancy index / …
[26] = systemic / hematology / erythrocyte (rbc) count differential / erythrocyte (rbc) + systemic / hematology / hematocrit (hct) / hematocrit (…
[27] = systemic / hematology / hemoglobin (hgb) / hemoglobin (hgb)
[28] = systemic / pathology microscopic / ovary / atrophy + systemic / pathology microscopic / ovary / cyst + systemic / pathology microscopic / …
[29] = systemic / pathology microscopic / ovary / cyst + systemic / pathology microscopic / harderian gland / adenoma
[30] = group: developmental, developmental / developmental malformation / bone / [other] + developmental / developmental malformation / general / crown-rump length + …
[31] = group: maternal, reproductive / reproductive performance / resorptions / resorptions + reproductive / offspring survival early / dead fetuses / dead fetuses…
[32] = group: developmental, developmental / developmental malformation / bone / [other] + developmental / developmental malformation / bone / incomplete ossification + …
[33] = group: maternal, reproductive / reproductive performance / resorptions / resorptions + reproductive / offspring survival early / dead fetuses / dead fetuses
[34] = group: maternal, reproductive / reproductive performance / aborted / aborted + systemic / in life observation / body weight / body weight + systemic / in …
[35] = group: developmental, developmental / developmental malformation / bone / [other] + developmental / developmental malformation / bone / kinked + developmental / …
[36] = group: developmental, developmental / developmental malformation / heart / [other] + developmental / developmental malformation / ureter / convoluted
[37] = group: maternal, reproductive / reproductive performance / postimplantation loss / postimplantation loss + reproductive / reproductive performance / …
[38] = group: maternal, systemic / organ weight / uterus / nos + reproductive / offspring survival early / live fetuses / live fetuses
[39] = group: developmental, developmental / developmental malformation / bone / [other] + developmental / developmental malformation / bone / fused + developmental / …
[40] = group: maternal, reproductive / reproductive performance / postimplantation loss / postimplantation loss + systemic / in life observation / body weight / …
[41] = group: maternal, systemic / in life observation / body weight / body weight gain

## C=CC(N)=O [Acrylamide]
Rat [1]; [18]
  LEL: 20 mg/kg/day
  LOAEL: > 20 mg/kg/day
  NEL: 5 mg/kg/day
  NOAEL: ≥ 20 mg/kg/day
Rat [1]; [19]
  LOAEL: > 20 mg/kg/day
  NOAEL: ≥ 20 mg/kg/day
Rat [1]; group: systemic, systemic / hematology / erythrocyte (rbc) count differential / erythrocyte (rbc) + systemic / hematology / hematocrit (hct) / hematocrit (…
  NEL: 0.2 mg/kg/day
Rat [1]; group: systemic, systemic / pathology microscopic / nerve / [other]
  LEL: 1 mg/kg/day
Rat [2]; systemic / pathology microscopic / testes / mesothelioma nos
  LEL: 0.1 mg/kg/day
Rat [2]; [20]
  LOAEL: > 2 mg/kg/day
  NEL: 0.01 mg/kg/day
  NOAEL: ≥ 2 mg/kg/day
Rat [3]
  LEL: 7.5 mg/kg/day
  LOAEL: 7.5 mg/kg/day
  NEL: 2.5 mg/kg/day
  NOAEL: 2.5 mg/kg/day
Mouse [4]; [21]
  LOAEL: > 7.7 mg/kg/day
  NEL: 0.86 mg/kg/day
  NOAEL: ≥ 7.7 mg/kg/day
Mouse [4]; group: parental, systemic / organ weight / adrenal gland / absolute + systemic / organ weight / kidney / absolute + systemic / organ weight / liver / …
  LEL: 2.9 mg/kg/day
Mouse [4]; [22]
  LEL: 7.7 mg/kg/day
  LOAEL: > 7.7 mg/kg/day
  NOAEL: ≥ 7.7 mg/kg/day
Rat [5]
  LEL: 5 mg/kg/day
  LOAEL: 5 mg/kg/day
  NEL: < 5 mg/kg/day
  NOAEL: < 5 mg/kg/day
Mouse [6]; [23]
  LEL: 45 mg/kg/day
  LOAEL: > 45 mg/kg/day
  NEL: 15 mg/kg/day
  NOAEL: ≥ 45 mg/kg/day
Mouse [6]; [24]
  LOAEL: > 45 mg/kg/day
  NEL: 3 mg/kg/day
  NOAEL: ≥ 45 mg/kg/day
Mouse [6]; group: maternal, systemic / organ weight / uterus / nos
  LEL: 15 mg/kg/day
Rat [7]; systemic / in life observation / body weight / offspring (pup) weight
  LEL: 1 mg/kg/day
Rat [7]; systemic / in life observation / body weight / offspring (pup) weight + developmental / developmental landmark / pinna unfolding / pinna …
  NEL: 0.5 mg/kg/day
Rat [7]; [25]
  LOAEL: > 10 mg/kg/day
  NOAEL: ≥ 10 mg/kg/day
Rat [8]
  LEL: 1 mg/kg/day
  LOAEL: > 12 mg/kg/day
  NEL: < 1 mg/kg/day
  NOAEL: ≥ 12 mg/kg/day
Rat [9]
  LEL: 25 mg/kg/day
  LOAEL: > 25 mg/kg/day
  NEL: < 25 mg/kg/day
  NOAEL: ≥ 25 mg/kg/day

## C=CC#N [Acrylonitrile]
Mouse [10]; [26]
  LOAEL: > 60 mg/kg/day
  NOAEL: ≥ 60 mg/kg/day
Mouse [10]; [27]
  LEL: 5 mg/kg/day
  NEL: < 5 mg/kg/day
Mouse [11]; [28]
  LOAEL: 10 mg/kg/day
  NOAEL: 2.5 mg/kg/day
Mouse [11]; [29]
  LEL: 2.5 mg/kg/day
  NEL: < 2.5 mg/kg/day

## CC(=O)Oc1ccccc1C(=O)O [Aspirin]
Rat [12]; [30]
  LEL: 500 mg/kg/day
  LOAEL: > 625 mg/kg/day
  NEL: < 500 mg/kg/day
  NOAEL: ≥ 625 mg/kg/day
Rat [12]; group: maternal, reproductive / reproductive performance / resorptions / resorptions
  NEL: 500 mg/kg/day
Rat [12]; [31]
  LEL: 625 mg/kg/day
  LOAEL: > 625 mg/kg/day
  NOAEL: ≥ 625 mg/kg/day
Rat [13]; [32]
  LEL: 500 mg/kg/day
  LOAEL: > 500 mg/kg/day
  NEL: < 500 mg/kg/day
  NOAEL: ≥ 500 mg/kg/day
Rat [13]; [33]
  LEL: 500 mg/kg/day
  LOAEL: > 500 mg/kg/day
  NEL: < 500 mg/kg/day
  NOAEL: ≥ 500 mg/kg/day
Rat [14]
  LEL: 100 mg/kg/day
  LOAEL: > 100 mg/kg/day
  NEL: < 100 mg/kg/day
  NOAEL: ≥ 100 mg/kg/day
rabbit; [23]
  LEL: 350 mg/kg/day
  LOAEL: > 350 mg/kg/day
  NEL: 250 mg/kg/day
  NOAEL: ≥ 350 mg/kg/day
rabbit; [34]
  LOAEL: > 350 mg/kg/day
  NEL: 125 mg/kg/day
  NOAEL: ≥ 350 mg/kg/day
rabbit; group: maternal, systemic / in life observation / body weight / body weight gain + systemic / in life observation / clinical signs / defecation (diarrhea) + …
  LEL: 250 mg/kg/day
Rat [15]; [35]
  LOAEL: > 1000 mg/kg/day
  NOAEL: ≥ 1000 mg/kg/day
Rat [15]; [36]
  LEL: 50 mg/kg/day
  NEL: < 50 mg/kg/day
Rat [15]; [37]
  LOAEL: > 1000 mg/kg/day
  NOAEL: ≥ 1000 mg/kg/day
Rat [15]; [38]
  LEL: 50 mg/kg/day
  NEL: < 50 mg/kg/day

## CC[C@H](C)C(=O)O[C@H]1C[C@@H](C)C=C2C=C[C@H](C)[C@H](CC[C@@H]3C[C@@H](O)CC(=O)O3)[C@H]21 [Lovastatin]
Rat [16]; [39]
  LOAEL: > 800 mg/kg/day
  NOAEL: ≥ 800 mg/kg/day
Rat [16]; [23]
  LEL: 100 mg/kg/day
  NEL: < 100 mg/kg/day
Rat [16]; [40]
  LOAEL: > 800 mg/kg/day
  NOAEL: ≥ 800 mg/kg/day
Rat [16]; [41]
  LEL: 100 mg/kg/day
  NEL: < 100 mg/kg/day
Mouse [17]
  LEL: 30 mg/kg/day
  LOAEL: > 30 mg/kg/day
  NEL: < 30 mg/kg/day
  NOAEL: ≥ 30 mg/kg/day
